In patent publication US20170158671A1, “PYRIMIDINE COMPOSITIONS, ULTRA PURE COMPOSITIONS AND SALTS THEREOF, METHODS OF MAKING THE SAME, AND METHODS OF USING THE SAME FOR TREATING HISTAMINE H4 RECEPTOR (H4) MEDIATED DISEASES AND CONDITIONS” (Ziarco Pharma Ltd., priority 2015, published 2017):

What was measured:
[1] = Salt screen: HT-XRPD after accelerated aging conditions; assay type: physicochemical; settings: solid form by HT-XRPD after 40° C., 75% RH for two days, code+number = crystalline salt polymorph, 0 = crystalline counter ion itself
Method: XRPD patterns were obtained using the Crystallics T2 high-throughput XRPD set-up. The plates were mounted on a Bruker General Area Detector Diffraction System (GADDS) equipped with a VÅNTEC-500 gas area detector corrected for intensity and geometric variations. The calibration of the measurement accuracy (peaks position) was performed using NIST SRM1976 standard (Corundum).
Data collection was carried out at room temperature using monochromatic CuKα radiation in the 2θ region between 1.5° and 41.5°, which is the most distinctive part of the XRPD pattern. The diffraction pattern of each well was collected in two 2θ ranges (1.5°≦2θ≦21.5° for the first frame, and 19.5°≦2θ≦41.5° for the second) with an exposure time of 90 s for each frame. No background subtraction or curve smoothing was applied to the XRPD patterns.
Approximately 175 mg of N^4-(cyclopropylmethyl)-6-[(3R)-3-(methylamino)pyrrolidin-1-yl]pyrimidine-2,4-diamine in 1-Butanol and Dichloromethane were combined with a slight molar excess of either solid or liquid counter ion. Samples were incubated at RT. After 5 days the solids were collected, dried under vacuum and analyzed by HT-XRPD (XRPD 1).
Subsequently, the solids were exposed to accelerated aging conditions (40° C., 75% RH) for two days and re-analyzed by HT-XRPD (XRPD 2). Crystalline salts (polymorphs) are indicated with the abbreviated counter ion code and a number (1, 2, etc.). The number zero (0) indicates the crystalline counter ion itself.

[2] = Dynamic vapor sorption (DVS) analysis; assay type: physicochemical; settings: 25° C.
Method: Moisture sorption isotherms were collected on a DVS-1 system from Surface Measurement Systems (London, UK). Typical sample size is between 5 and 10 mg of solid material. The relative humidity was cycled between 40% to 0% (desorption), up to 95% (sorption), back to 0% RH (desorption) and up to 95% RH (sorption) in steps of 10% at a constant temperature of 25° C. with an initial stabilizing step at 40% RH for 6 hours.
(FIG. 9) The relative humidity (RH) was cycled between 40% to 0% (desorption), up to 95% (sorption) in steps of 10%. During the desorption, the dehydration step occurs when the RH goes below 10% RH. Water uptake is observed in between 0-20% RH (1.9% mass uptake) and 20-30% (total mass uptake 6.9%).

[3] = Salt screen: HT-XRPD after accelerated aging conditions; assay type: physicochemical; settings: 14 counter ions tested; only hydrochloric acid gave such a salt
[4] = Phase 1 trials, single and multiple ascending doses; assay type: in vivo, human
Method: In phase 1 trials, 62 subjects were treated with ZPL-389.

[5] = system: adult subjects with moderate to severe atopic dermatitis; assay: Phase 2a study in moderate to severe atopic dermatitis; assay type: in vivo, human
Method: Following the phase 1 trials, a phase 2a trial was conducted to evaluate the efficacy of 8 weeks of treatment with 30 mg ZPL-389 administered once daily in adult subject with moderate to severe atopic dermatitis. The study was also designed to assess the safety and tolerability of ZPL-389 in adult subjects with moderate to severe atopic dermatitis.
This study was a randomized, double blind, placebo controlled, parallel group study of subjects having a pruritus Numerical Rating Scale (NRS) of ≧5 (0-10 scale), an Investigator's Global Assessment (IGA) ≧3 (0-3 scale), and moderate-severe AD Eczema Area and Severity Index (EASI) ≧12 and ≦48 (0-72 scale). In addition, subjective patient reported outcome instruments include: Ziarco Itch Diary (Electronic) Pruritus; 5D Pruritus Scale; Dermatology Life Quality Index (DLQI); and Patient Global Impression of Change (PGIG).
Each subject (aged 18-65 years) had one or more screening visits to confirm suitability to enter the study. 98 subjects with moderate to severe atopic dermatitis were randomized 2:1 to receive orally either 30 mg ZPL-389 or placebo once daily for eight weeks (56 days).
Efficacy endpoints for the trial include the following: • change from baseline in NRS for pruritus (worst itch) over 24 hours; • change from baseline in daytime NRS for pruritus (worst itch); • change from baseline in night time NRS for pruritus (worst itch); • change from baseline in NRS for sleep disturbance; • change from baseline in duration of itching; • change from baseline in verbal rating score for pruritus; • change from baseline in EASI score; • change from baseline in SCORAD score; • IGA score; • amount of rescue medication use; and/or • PGIC.

[6] = system: mild asthmatics; settings: 36 mg in two single doses given 12 hours apart, oral; cited from earlier work
[7] = 30 mg orally once daily vs placebo
[8] = 30 mg orally once daily, 8 weeks

Compound	XRPD 2 ([1]; 1-Butanol)	XRPD 2 ([1]; Dichloromethane)	also measured
O=C(O)C(O)c1ccccc1 (racemic) [DL-Mandelic acid]	Amorphous	Amorphous	–
CC(=O)Nc1ccc(C(=O)O)cc1 [4-acetamido-Benzoic acid]	ABen1 + ABen0	ABen1 + ABen0	–
O=C(O)[C@H](O)[C@@H](O)C(=O)O [(+)-L-Tartaric acid]	Amorphous	Amorphous	–
CC(=O)O [Acetic acid]	Amorphous	Amorphous	–
O=S(=O)(O)c1ccccc1 [Benzenesulfonic acid]	Amorphous	Amorphous	–
O=C(O)c1ccccc1 [Benzoic acid]	Ben1 + Ben2 plus	Ben1 + Ben2 plus	–
O=C(O)CC(O)(CC(=O)O)C(=O)O [Citric acid]	Amorphous	Amorphous	–
O=C[C@H](O)[C@@H](O)[C@H](O)[C@H](O)C(=O)O [D-Glucuronic acid]	Amorphous	Amorphous	–
O=S(=O)(O)CCS(=O)(=O)O [Ethane-1,2-disulfonic acid]	Eds1 + Eds2	Eds1	–
CCS(=O)(=O)O [Ethanesulfonic acid]	Amorphous	Amorphous	–
CN[C@@H]1CCN(c2cc(NCC3CC3)nc(N)n2)C1.O.O.O=C(O)C(O)C(O)C(=O)O [Example 4, N^4-(cyclopropylmethyl)-6-[(3R)-3-(methylamino)pyrrolidin-1-yl]pyrimidine-2,4-diamine tartrate dihydrate]	–	–	RH at which the dehydration step occurs during desorption ([2]; DVS desorption): below 10 % RH; Water uptake (mass uptake) between 0-20% RH ([2]; DVS sorption): 1.9%; total mass uptake at 20-30% RH ([2]; DVS sorption): 6.9%; weight between 30-90% RH ([2]; DVS): remains stable
CN[C@@H]1CCN(c2cc(NCC3CC3)nc(N)n2)C1.Cl.Cl.O [Example 8, N^4-(cyclopropylmethyl)-6-[(3R)-3-(methylamino)pyrrolidin-1-yl]pyrimidine-2,4-diamine di-hydrochloride hydrate]	–	–	stability of two to one stoichiometric salt [3]: stable
O=C(O)/C=C/C(=O)O [Fumaric acid]	Amorphous	Fum0 + Fum3	–
O=C(O)c1cc(O)ccc1O [Gentisic acid]	Gen2	Gen2	–
O=C(O)[C@H](O)[C@@H](O)[C@H](O)[C@H](O)CO [Gluconic acid]	Amorphous	Amorphous	–
N[C@@H](CCC(=O)O)C(=O)O [Glutamic acid]	Gltm0	Amorphous	–
O=C(O)CCCC(=O)O [Glutaric acid]	Glut1	Glut1	–

Compound	XRPD 2 ([1]; 1-Butanol)	XRPD 2 ([1]; Dichloromethane)	also measured
O=C(O)CNC(=O)c1ccccc1 [Hippuric acid]	Amorphous	Amorphous	–
Br [Hydrobromic acid]	Amorphous	Amorphous	–
Cl [Hydrochloric acid]	Amorphous	Amorphous	–
O=C1O[C@H]([C@@H](O)CO)C(O)=C1O [L-Ascorbic acid]	Amorphous	Amorphous	–
N[C@@H](CC(=O)O)C(=O)O [L-Aspartic acid]	Asp0	Amorphous	–
CC(O)C(=O)O (stereo not drawn) [Lactic acid]	Amorphous	Amorphous	–
O=C(O)/C=C\C(=O)O [Maleic acid]	Amorphous	Amorphous	–
CS(=O)(=O)O [Methanesulfonic acid]	Amorphous	Amorphous	–
O=S(=O)(O)c1ccc2ccccc2c1 [Naphtalene-2-sulfonic acid]	Nap1 + Nap0	Amorphous	–
O=C(O)C(=O)O [Oxalic acid]	Oxa3	Oxa3	–
O=P(O)(O)O [Phosphoric acid]	Pho2 plus	Pho3	–
O=C(O)c1ccccc1O [Salicylic acid]	Sal1 plus	Amorphous	–
CCCCCCCCCCCCCCCCCC(=O)O [Stearic acid]	Ste0 + Ste1	Ste0 + Ste1	–
O=S(=O)(O)O [Sulfuric acid]	Amorphous	Amorphous	–
CN[C@@H]1CCN(c2cc(NCC3CC3)nc(N)n2)C1 [ZPL-389, N^4-(cyclopropylmethyl)-6-[(3R)-3-(methylamino)pyrrolidin-1-yl]pyrimidine-2,4-diamine]	–	–	absorption ([4]; phase 1 trials): rapidly absorbed; pharmacokinetics (dose proportionality) ([4]; phase 1 trials): dose-proportional; majority of observed adverse events ([4]; single ascending doses 0.01-48 mg, multiple ascending doses 5, 15, 50 mg once daily for 14 days): mild, transient, and non-dose related; tolerability ([4]; single ascending doses 0.01-48 mg, multiple ascending doses 5, 15, 50 mg once daily for 14 days, 62 subjects): safely tolerated; IGA remission odds ratio [5, 7]: 2.71; IGA response odds ratio [5, 7]: 2.51; Treatment Emergent Adverse Events (TEAE) between ZPL-389 and placebo [5, 8]: no differences; inflammation compared to placebo (EASI, SCORAD, BSA) [5, 8]: clinically and statistically significant decrease; subjects with clear or almost clear skin [5, 8]: 19%; tolerability / safety profile ([5]; 30 mg orally once daily, 8 weeks, comparable to placebo): well tolerated; rescue medication use ([5]; 30 mg orally once daily, 8 weeks, vs placebo): lower; IGA reduced by ([5]; 30 mg orally once daily, week 8, placebo 25%): 36%; SCORAD reduced by ([5]; 30 mg orally once daily, week 8, placebo 26%, p=0.004): 41%; EASI reduced by ([5]; 30 mg orally once daily, week 8, placebo 27%, p=0.01): 50%; BSA (Body Surface Area) affected by inflammation change from baseline ([5]; 30 mg orally once daily, week 8, placebo −12%, p=0.044): −18%; pruritus ([5]; 30 mg orally once daily, statistically significant compared to baseline): markedly reduced; efficacy in mild asthma [6]: no efficacy was observed
Cc1ccc(S(=O)(=O)O)cc1 [p-Toluenesulfonic acid]	Amorphous	Amorphous	–
(−)-L-Malic acid	Amorphous	Amorphous	–
